What all share (test): KINOMEscan competitive binding
The target of one assay is T1, CDK2 (Homo sapiens, UniProt P24941).
T1 construct: purchased DiscoverX (KINOMEscan)
The text has this: (§1) The kinases were expressed as fusions to T7 bacteriophage. This is a sensitive, competitive binding assay where test compounds were used to displace immobilized ATP-site binding probe ligands from kinases of interest. The amount of kinase that remained bound to the immobilized probe ligands on the solid support was quantified. Percentage inhibition data were was plotted on kinome trees using the web-based tool KinMap (http://www.kinhub.org/kinmap) ([60]).

In the next assay the target is T2, CDK5 (Homo sapiens, UniProt Q00535).
T2 construct: purchased DiscoverX (KINOMEscan)
T2 sequence (Q00535 whole entry): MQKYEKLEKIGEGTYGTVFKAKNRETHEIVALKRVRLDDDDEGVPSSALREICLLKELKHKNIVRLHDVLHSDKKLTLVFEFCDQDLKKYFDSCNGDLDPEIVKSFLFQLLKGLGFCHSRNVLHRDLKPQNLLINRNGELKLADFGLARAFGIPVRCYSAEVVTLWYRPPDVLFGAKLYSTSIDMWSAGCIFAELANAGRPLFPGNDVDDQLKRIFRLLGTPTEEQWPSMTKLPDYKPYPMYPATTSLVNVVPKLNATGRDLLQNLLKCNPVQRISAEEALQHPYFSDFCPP
Text: as §1

For another assay, the target named is T3, KIT (Homo sapiens, UniProt P10721).
T3 construct: purchased DiscoverX (KINOMEscan)
The note with it: 10 µM, n=1; kinase KIT; read-out: Percent inhibition KIT.
Text: as §1

The next assay concerns the target T4, CLK1 (Homo sapiens, UniProt P49759).
T4 construct: purchased DiscoverX (KINOMEscan)
Particulars: 10 µM, n=1; kinase CLK1; read-out: Percent inhibition CLK1.
Text: as §1

The target in another assay is T5, CSNK1D (Homo sapiens, UniProt P48730).
T5 construct: purchased DiscoverX (KINOMEscan)
T5 sequence (P48730 whole entry): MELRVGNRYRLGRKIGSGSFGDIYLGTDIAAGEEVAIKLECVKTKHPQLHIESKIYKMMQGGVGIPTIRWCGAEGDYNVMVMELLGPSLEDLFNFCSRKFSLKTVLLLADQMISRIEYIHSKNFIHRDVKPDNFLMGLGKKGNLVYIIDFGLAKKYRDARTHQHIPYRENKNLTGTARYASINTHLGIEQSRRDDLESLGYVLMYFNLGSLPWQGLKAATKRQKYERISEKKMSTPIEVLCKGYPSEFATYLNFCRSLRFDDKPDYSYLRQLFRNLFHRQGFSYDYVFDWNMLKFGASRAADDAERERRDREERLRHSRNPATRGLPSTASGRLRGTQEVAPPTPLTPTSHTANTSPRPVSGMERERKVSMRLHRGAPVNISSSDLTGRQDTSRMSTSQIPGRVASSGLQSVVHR
The note with it: 10 µM, n=1; kinase CSNK1D; read-out: Percent inhibition CSNK1D.
Text: as §1

The target of a further assay is T6, KDR (VEGFR2) (Homo sapiens, UniProt P35968).
T6 construct: purchased DiscoverX (KINOMEscan)
T6 sequence (P35968 20-1356): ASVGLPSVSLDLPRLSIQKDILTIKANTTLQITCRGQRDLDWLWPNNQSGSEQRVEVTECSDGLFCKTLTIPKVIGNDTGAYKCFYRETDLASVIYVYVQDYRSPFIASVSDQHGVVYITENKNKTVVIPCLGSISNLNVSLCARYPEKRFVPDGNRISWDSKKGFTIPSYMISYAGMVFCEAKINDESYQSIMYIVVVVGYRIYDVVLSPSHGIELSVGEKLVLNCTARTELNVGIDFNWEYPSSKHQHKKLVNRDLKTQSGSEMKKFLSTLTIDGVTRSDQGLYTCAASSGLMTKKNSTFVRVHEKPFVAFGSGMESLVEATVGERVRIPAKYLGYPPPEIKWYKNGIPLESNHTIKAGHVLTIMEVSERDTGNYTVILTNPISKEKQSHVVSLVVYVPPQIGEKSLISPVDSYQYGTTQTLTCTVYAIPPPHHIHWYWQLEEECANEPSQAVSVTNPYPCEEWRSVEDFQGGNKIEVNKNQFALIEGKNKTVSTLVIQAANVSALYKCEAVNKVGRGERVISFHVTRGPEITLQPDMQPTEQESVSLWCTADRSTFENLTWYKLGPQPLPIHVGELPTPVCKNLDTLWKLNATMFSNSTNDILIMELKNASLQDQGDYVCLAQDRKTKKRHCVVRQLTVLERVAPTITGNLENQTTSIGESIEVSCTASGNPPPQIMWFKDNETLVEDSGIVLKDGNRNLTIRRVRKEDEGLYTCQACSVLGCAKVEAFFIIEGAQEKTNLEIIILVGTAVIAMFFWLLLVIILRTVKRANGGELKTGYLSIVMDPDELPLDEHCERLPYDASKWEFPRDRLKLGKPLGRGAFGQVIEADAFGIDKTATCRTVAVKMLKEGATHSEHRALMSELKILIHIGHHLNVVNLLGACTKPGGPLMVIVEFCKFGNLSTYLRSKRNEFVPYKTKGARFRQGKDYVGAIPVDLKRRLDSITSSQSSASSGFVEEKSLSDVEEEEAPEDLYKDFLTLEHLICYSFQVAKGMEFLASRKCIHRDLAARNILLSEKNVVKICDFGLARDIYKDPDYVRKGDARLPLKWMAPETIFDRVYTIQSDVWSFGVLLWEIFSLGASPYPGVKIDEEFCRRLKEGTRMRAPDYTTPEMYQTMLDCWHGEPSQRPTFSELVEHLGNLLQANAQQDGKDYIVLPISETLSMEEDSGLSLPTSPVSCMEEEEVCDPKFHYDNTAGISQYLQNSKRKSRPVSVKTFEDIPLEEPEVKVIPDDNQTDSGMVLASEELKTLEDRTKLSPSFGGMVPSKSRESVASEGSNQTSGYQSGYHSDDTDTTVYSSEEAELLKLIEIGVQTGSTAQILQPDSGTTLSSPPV
Particulars: KINOMEscan, 10 µM, n=1; read-out: Percent inhibition, VEGFR2.
Text: as §1

The target of a further assay is T7, Aurora kinase A (Homo sapiens, UniProt O14965).
T7 construct: purchased DiscoverX (KINOMEscan)
T7 sequence (O14965 1-403): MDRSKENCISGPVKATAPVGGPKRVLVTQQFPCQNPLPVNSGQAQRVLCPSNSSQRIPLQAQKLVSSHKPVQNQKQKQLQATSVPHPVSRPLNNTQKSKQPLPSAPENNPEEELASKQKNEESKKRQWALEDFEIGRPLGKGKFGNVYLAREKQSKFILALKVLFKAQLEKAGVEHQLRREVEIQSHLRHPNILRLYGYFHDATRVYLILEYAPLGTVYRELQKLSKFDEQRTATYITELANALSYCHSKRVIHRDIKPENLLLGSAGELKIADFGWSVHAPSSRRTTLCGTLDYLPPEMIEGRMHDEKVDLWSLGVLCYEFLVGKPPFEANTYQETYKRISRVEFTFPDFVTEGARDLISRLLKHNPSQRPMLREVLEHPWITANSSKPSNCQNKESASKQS
Text: as §1

A further assay addresses T8, PDGFRβ (Homo sapiens, UniProt P09619).
T8 construct: purchased DiscoverX (KINOMEscan)
Particulars: KINOMEscan, 10 µM, n=1; read-out: Percent inhibition, PDGFRB.
Text: as §1

A further assay has as its target T9, EGFR (Homo sapiens, UniProt P00533).
T9 construct: purchased DiscoverX (KINOMEscan)
Text: as §1

The next assay concerns the target T10, BIKE (Homo sapiens, UniProt Q9NSY1).
T10 construct: purchased DiscoverX (KINOMEscan)
Text: as §1

In a further assay the target is T11, PDGFRα (Homo sapiens, UniProt P16234).
T11 construct: purchased DiscoverX (KINOMEscan)
Particulars: KINOMEscan, 10 µM, n=1; read-out: Percent inhibition, PDGFRA.
Text: as §1

The next assay deals with T12, AXL (Homo sapiens, UniProt P30530).
T12 construct: purchased DiscoverX (KINOMEscan)
T12 sequence (P30530 26-894): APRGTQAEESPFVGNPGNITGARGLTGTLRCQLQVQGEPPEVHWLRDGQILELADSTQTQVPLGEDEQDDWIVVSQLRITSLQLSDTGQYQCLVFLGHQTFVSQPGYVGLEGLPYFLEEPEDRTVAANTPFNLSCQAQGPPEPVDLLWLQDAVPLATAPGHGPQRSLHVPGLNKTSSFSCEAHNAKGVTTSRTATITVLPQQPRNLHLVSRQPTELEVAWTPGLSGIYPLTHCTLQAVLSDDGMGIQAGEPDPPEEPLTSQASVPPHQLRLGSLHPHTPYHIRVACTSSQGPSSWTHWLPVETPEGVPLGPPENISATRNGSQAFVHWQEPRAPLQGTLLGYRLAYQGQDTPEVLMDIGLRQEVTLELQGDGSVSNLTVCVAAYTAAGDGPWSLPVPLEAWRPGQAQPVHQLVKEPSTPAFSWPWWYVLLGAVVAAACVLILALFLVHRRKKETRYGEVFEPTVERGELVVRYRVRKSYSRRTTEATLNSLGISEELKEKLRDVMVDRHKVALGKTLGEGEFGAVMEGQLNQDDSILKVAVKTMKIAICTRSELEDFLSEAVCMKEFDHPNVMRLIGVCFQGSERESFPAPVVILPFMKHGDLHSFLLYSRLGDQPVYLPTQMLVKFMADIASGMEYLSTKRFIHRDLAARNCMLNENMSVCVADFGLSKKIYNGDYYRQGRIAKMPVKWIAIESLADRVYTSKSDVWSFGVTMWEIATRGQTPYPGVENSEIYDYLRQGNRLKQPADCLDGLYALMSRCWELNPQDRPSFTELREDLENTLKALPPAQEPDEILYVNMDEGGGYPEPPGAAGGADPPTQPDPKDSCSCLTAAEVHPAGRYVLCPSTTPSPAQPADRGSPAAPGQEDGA
Text: as §1

Another assay has as its target T13, PKAC-alpha (Homo sapiens, UniProt P17612).
T13 construct: purchased DiscoverX (KINOMEscan)
The note with it: n=1, read-out: Percent inhibition, PKAC-alpha.

The next assay has as its target T14, PKAC-beta (Homo sapiens, UniProt P22694).
T14 construct: purchased DiscoverX (KINOMEscan)
The note with it: n=1, read-out: Percent inhibition, PKAC-beta.

[1] abbreviates: 10 μM, n = 1, read-out: percent inhibition CDK2.
The mark [2] stands for this setting: 10 µM, n=1, kinase CDK2, read-out: Percent inhibition CDK2.
Where [3] appears, read: 10 μM, n = 1, read-out: percent inhibition CDK5.
[4] abbreviates: 10 µM, n=1, kinase CDK5, read-out: Percent inhibition CDK5.
Setting [5] is: 10 μM, n = 1, read-out: percent inhibition Aurora kinase A.
Where [6] appears, read: 10 µM, n=1, kinase AURKA, read-out: Percent inhibition AURKA.
The mark [7] stands for this setting: 10 µM, n=1, kinase EGFR, read-out: Percent inhibition EGFR.
The mark [8] stands for this setting: 10 µM, n=1, kinase BIKE, read-out: Percent inhibition BIKE.
[9] abbreviates: 10 µM, n=1, kinase AXL, read-out: Percent inhibition AXL.

The term inhibition denotes how much of the control response was suppressed.

Read-outs that look alike come from different tables or passages of the source.

T8 sequence (P09619 33-1106): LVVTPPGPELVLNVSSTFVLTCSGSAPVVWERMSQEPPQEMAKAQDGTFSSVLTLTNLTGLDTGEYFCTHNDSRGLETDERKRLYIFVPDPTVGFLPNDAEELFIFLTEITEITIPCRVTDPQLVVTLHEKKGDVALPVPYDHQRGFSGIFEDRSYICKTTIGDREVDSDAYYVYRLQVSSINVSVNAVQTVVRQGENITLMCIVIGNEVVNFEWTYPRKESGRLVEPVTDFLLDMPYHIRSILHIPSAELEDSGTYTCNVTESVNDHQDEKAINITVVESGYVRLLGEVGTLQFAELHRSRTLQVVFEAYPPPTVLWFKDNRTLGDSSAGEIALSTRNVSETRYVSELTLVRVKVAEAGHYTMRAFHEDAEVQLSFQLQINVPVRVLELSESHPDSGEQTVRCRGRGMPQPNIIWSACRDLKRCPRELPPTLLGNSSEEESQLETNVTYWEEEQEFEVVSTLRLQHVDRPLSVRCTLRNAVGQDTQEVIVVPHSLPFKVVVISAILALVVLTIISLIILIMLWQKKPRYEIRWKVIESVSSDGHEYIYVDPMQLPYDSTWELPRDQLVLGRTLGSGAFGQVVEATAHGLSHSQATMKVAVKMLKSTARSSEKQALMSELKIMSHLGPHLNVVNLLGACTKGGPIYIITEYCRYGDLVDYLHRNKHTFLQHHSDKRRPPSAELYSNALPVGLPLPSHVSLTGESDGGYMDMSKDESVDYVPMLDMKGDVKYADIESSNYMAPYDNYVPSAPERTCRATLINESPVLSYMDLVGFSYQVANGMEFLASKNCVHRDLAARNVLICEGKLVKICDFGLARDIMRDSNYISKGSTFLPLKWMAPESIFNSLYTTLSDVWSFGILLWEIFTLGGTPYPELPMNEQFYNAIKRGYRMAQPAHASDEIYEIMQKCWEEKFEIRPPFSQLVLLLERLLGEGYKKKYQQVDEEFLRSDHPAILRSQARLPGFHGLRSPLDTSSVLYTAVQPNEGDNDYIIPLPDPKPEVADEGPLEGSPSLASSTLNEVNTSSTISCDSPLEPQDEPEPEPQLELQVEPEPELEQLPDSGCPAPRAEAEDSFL
T9 sequence (P00533 25-1210): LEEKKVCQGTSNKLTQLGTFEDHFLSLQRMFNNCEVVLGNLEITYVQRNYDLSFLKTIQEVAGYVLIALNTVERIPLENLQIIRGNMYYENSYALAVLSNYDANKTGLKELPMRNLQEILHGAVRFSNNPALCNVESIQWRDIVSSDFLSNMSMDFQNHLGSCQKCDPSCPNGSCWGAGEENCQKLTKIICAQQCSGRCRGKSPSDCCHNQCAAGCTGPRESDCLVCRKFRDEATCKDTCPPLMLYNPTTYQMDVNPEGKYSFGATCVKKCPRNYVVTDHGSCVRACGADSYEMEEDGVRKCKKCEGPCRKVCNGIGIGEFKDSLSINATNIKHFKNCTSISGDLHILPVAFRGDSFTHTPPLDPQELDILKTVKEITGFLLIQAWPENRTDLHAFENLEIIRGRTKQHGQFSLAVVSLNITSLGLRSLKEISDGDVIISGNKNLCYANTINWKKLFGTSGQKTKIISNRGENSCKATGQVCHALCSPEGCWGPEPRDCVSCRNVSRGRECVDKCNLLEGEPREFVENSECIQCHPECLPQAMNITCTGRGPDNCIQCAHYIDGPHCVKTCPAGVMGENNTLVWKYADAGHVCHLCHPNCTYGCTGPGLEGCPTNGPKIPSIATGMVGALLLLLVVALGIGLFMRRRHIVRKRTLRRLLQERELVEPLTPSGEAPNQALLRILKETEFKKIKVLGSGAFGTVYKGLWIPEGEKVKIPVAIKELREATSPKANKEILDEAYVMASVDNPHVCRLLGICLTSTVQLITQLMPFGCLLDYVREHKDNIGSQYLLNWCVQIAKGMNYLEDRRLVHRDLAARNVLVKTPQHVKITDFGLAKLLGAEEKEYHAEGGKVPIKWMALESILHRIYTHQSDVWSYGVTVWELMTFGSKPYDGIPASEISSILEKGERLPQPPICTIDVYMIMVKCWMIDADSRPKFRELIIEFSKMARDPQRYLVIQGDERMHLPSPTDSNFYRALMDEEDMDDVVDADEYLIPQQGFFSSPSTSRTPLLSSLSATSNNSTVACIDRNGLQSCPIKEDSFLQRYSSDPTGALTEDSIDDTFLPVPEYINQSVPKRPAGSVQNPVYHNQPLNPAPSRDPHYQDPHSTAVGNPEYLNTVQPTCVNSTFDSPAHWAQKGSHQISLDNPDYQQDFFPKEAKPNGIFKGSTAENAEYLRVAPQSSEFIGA
T4 sequence (P49759 whole entry): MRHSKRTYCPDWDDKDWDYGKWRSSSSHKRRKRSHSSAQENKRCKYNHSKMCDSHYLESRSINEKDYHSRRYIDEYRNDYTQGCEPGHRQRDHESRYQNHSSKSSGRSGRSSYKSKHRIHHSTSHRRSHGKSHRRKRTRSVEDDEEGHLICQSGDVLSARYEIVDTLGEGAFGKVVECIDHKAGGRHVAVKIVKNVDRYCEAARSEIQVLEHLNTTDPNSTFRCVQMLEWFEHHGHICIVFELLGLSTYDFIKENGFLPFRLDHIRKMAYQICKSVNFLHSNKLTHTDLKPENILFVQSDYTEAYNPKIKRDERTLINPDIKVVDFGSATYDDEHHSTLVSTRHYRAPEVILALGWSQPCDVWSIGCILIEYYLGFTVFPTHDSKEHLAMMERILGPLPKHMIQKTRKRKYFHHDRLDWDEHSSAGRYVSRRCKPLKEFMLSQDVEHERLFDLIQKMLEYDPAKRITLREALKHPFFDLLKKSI

`CN1CCN(c2ccc(Nc3nccc(-c4cnn5ncccc45)n3)cc2C#N)CC1` [Compound 1]: the inhibition at 10 µM at CDK2 (setting [1]) was above 99%; at CDK2 (setting [2]), 99.5%; at CDK5 (setting [3]), above 99%; on CDK5 (setting [4]), 99.5%; on KIT, 100%; at CLK1 it was 99.9%. For the same compound, the inhibition at 10 µM at CSNK1D was 100%; at KDR (VEGFR2), 100%; on Aurora kinase A (setting [5]), above 90%; at Aurora kinase A (setting [6]), 96.7%; at PDGFRβ, 100%; at EGFR (setting [7]), 0%. Moreover, the inhibition at 10 µM came out at 99.1% at BIKE (setting [8]); 100% at PDGFRα; 100% on AXL (setting [9]); 0% at PKAC-alpha; 0% on PKAC-beta.

As for `COc1ccc(Nc2nccc(-c3cnn4ncccc34)n2)cc1` [Compound 2], the inhibition at 10 µM was above 99% at CDK2 (setting [1]); 99.9% on CDK2 (setting [2]); above 99% on CDK5 (setting [3]); 99.8% on CDK5 (setting [4]); 100% on KIT; 99.8% at CLK1. Also, the inhibition at 10 µM on CSNK1D was 100%; on KDR (VEGFR2), 92.9%; on Aurora kinase A (setting [5]) it was above 90%; at Aurora kinase A (setting [6]) it was 91.1%; at PDGFRβ, 100%; at EGFR (setting [7]), 0%. The inhibition at 10 µM at BIKE (setting [8]) came out at 96.5%; on PDGFRα, 99.9%; at AXL (setting [9]), 77.8%; at PKAC-alpha, 0%; on PKAC-beta, 0%.

Turning to `Cc1ccc(O)cc1Nc1ccnc(Nc2cccc(C(N)=O)c2)n1` [Compound 3], the inhibition at 10 µM came out at 0% at CDK2 (setting [2]); 0% on CDK5 (setting [4]); 100% on KIT; 0% at CLK1; 100% at CSNK1D; 81.5% at KDR (VEGFR2). For the same compound, the inhibition at 10 µM worked out at 91.3% at Aurora kinase A (setting [6]); 100% on PDGFRβ; 99% on EGFR (setting [7]); 0% on BIKE (setting [8]); 99.2% on PDGFRα; 0% on AXL (setting [9]). In addition, the inhibition at 10 µM at PKAC-alpha and on PKAC-beta was 0% in each case.

`Cc1ccc(O)cc1N(C)c1ccnc(Nc2cccc(S(N)(=O)=O)c2)n1` [Compound 4]: the inhibition at 10 µM at CDK2 (setting [2]) turned out to be 0%; on CDK5 (setting [4]), 0%; at KIT, 100%; at CLK1 it was 0%; on CSNK1D it was 100%; on KDR (VEGFR2), 83.7%. For the same compound, the inhibition at 10 µM turned out to be 79.6% at Aurora kinase A (setting [6]); 100% on PDGFRβ; 95.8% on EGFR (setting [7]); 0% at BIKE (setting [8]); 100% on PDGFRα; 0% at AXL (setting [9]). The inhibition at 10 µM at PKAC-alpha was found to be 68.9%; on PKAC-beta, 77.8%.

On to `Fc1cccc(COc2ccc(Nc3ncnc4c3CN(CCN3CCOCC3)CC4)cc2Cl)c1` [Compound 6], for which the inhibition at 10 µM on CDK2 (setting [2]), on CDK5 (setting [4]), on KIT, at CLK1, at CSNK1D and at KDR (VEGFR2) was 0% throughout. Moreover, the inhibition at 10 µM on Aurora kinase A (setting [6]) is 0%; on PDGFRβ, 0%; at EGFR (10 μM, n = 1, read-out: percent inhibition EGFR) it was above 99%; at EGFR (setting [7]), 99.9%; on BIKE (setting [8]) it was 0%; on PDGFRα, 0%. Moreover, the inhibition at 10 µM on AXL (setting [9]), on PKAC-alpha and at PKAC-beta was 0% throughout.

Take `COc1cc(Nc2nccc(-c3sc(N)nc3-c3cccc(NC(=O)c4c(F)cccc4F)c3)n2)cc(OC)c1OC` [Compound 7]: the inhibition at 10 µM came out at 0% at CDK2 (setting [2]); 0% on CDK5 (setting [4]); 100% on KIT; 0% at CLK1; 76.3% on CSNK1D; 89.5% at KDR (VEGFR2). Moreover, the inhibition at 10 µM on Aurora kinase A (setting [6]) came to 99.5%; on PDGFRβ, 100%; on EGFR (setting [7]), 100%; on BIKE (setting [8]), 0%; on PDGFRα, 100%; at AXL (setting [9]) it was 99%. The inhibition at 10 µM at PKAC-alpha and on PKAC-beta was 0% in each case.

For the compound `C[C@@H](Oc1cc(-c2cnc3ccccn23)sc1C(N)=O)c1ccccc1Cl` [Compound 8], the inhibition at 10 µM on CDK2 (setting [2]) was found to be 0%; at CDK5 (setting [4]), 0%; on KIT, 0%; at CLK1 it was 92.7%; on CSNK1D, 0%; at KDR (VEGFR2), 0%. In addition, the inhibition at 10 µM at Aurora kinase A (setting [6]) came out at 0%; on PDGFRβ it was 0%; at EGFR (setting [7]) it was 0%; on BIKE (setting [8]), 99.4%; at PDGFRα, 0%; at AXL (setting [9]), 89%. In addition, the inhibition at 10 µM on PKAC-alpha and at PKAC-beta was 0% throughout.

In the case of `c1ccc(COc2cccc(-c3ccnc4[nH]ccc34)c2)cc1` [Compound 9], the inhibition at 10 µM on CDK2 (setting [2]), at CDK5 (setting [4]), at KIT, at CLK1, on CSNK1D and at KDR (VEGFR2) was 0% in each case. Also, the inhibition at 10 µM at Aurora kinase A (setting [6]) is 0%; at PDGFRβ it was 0%; at EGFR (setting [7]), 0%; on BIKE (10 μM, n = 1, read-out: percent inhibition BIKE) it was at least 90%; at BIKE (setting [8]) it was 94.9%; on PDGFRα it was 0%. Further, the inhibition at 10 µM is at least 90% at AXL (10 μM, n = 1, read-out: percent inhibition AXL); 93.8% at AXL (setting [9]); 0% on PKAC-alpha; 0% at PKAC-beta.
